Assay results: patent publication US11453666B2, “Autotaxin inhibitory compounds” (Cancer Research Technology Limited, priority 2015, dated 2022)

Target: human recombinant ATX (Homo sapiens, UniProt Q13822)
Experiment: Autotaxin (ATX) activity Quanta Red assay
Assay type: biochemical
Settings: read-out: Activity (ATX activity, Quanta Red assay; IC50)
Procedure: The reaction was stopped after 2 hours with a 20 μL addition of Quanta Red Stop solution (1:20 dilution in distilled water). The above-described mixture with DMSO alone was used as a positive control whereas that with DMSO alone without ATX was taken as a negative control.
Fluorescence was determined in a BMG Labtech Pherastar plus plate reader ([…]). Data were analysed using Excel fit software. IC50 values were determined in duplicate.

Structure (SMILES)	IC50
C[C@@H](NC(=O)CCc1nc2cccnc2n1Cc1ccc(OC(F)(F)F)cc1)c1ccc(Cl)cc1 [Example 49, N-[(R)-1-(4-Chloro-phenyl)-ethyl]-3-[3-(4-trifluoromethoxy-benzyl)-3H-imidazo[4,5-b]pyridin-2-yl]-propionamide]	0.021 µM
O=C(CCc1nc2cccnc2n1Cc1ccc(F)c(F)c1)NC(CO)c1ccc(F)cc1 (stereo not shown) [Example 50, 3-[3-(3,4-Difluoro-benzyl)-3H-imidazo[4,5-b]pyridin-2-yl]-N-[1-(4-fluoro-phenyl)-2-hydroxy-ethyl]-propionamide]	0.022 µM
CC(C)(C)OC(=O)N1CCC(CNC(=O)CCc2nc3cccnc3n2Cc2ccc(OC(F)(F)F)cc2)CC1 [Example 51, 4-({3-[3-(4-Trifluoromethoxy-benzyl)-3H-imidazo[4,5-b]pyridin-2-yl]-propionylamino}-methyl)-piperidine-1-carboxylic acid tert-butyl ester]	0.022 µM
COc1ccc(CNC(=O)CCc2nc3cc(C)cnc3n2Cc2ccc(OC(F)(F)F)cc2)cc1F [Example 52, N-(3-Fluoro-4-methoxy-benzyl)-3-[6-methyl-3-(4-trifluoromethoxy-benzyl)-3H-imidazo[4,5-b]pyridin-2-yl]-propionamide]	0.029 µM
COc1ccc(CNC(=O)CCc2nc3cc(C)cnc3n2Cc2ccc(OC(F)(F)F)cc2)cc1 [Example 53, N-(4-Methoxy-benzyl)-3-[6-methyl-3-(4-trifluoromethoxy-benzyl)-3H-imidazo[4,5-b]pyridin-2-yl]-propionamide]	0.038 µM

The next compounds have a lower IC50 than those just listed; values first:

IC50	Structure (SMILES)
0.01 µM	C[C@H](NC(=O)CCc1nc2cccnc2n1Cc1ccc(OC(F)(F)F)cc1)[C@H](O)c1ccccc1 [Example 41, N-((1S,2R)-2-Hydroxy-1-methyl-2-phenyl-ethyl)-3-[3-(4-trifluoromethoxy-benzyl)-3H-imidazo[4,5-b]pyridin-2-yl]-propionamide]
0.011 µM	O=C(CCc1nc2cccnc2n1Cc1ccc(OC(F)(F)F)cc1)NCC1CCCCC1 [Example 42, N-Cyclohexylmethyl-3-[3-(4-trifluoromethoxy-benzyl)-3H-imidazo[4,5-b]pyridin-2-yl]-propionamide]
0.011 µM	CC(NC(=O)CCc1nc2cccnc2n1Cc1ccc(OC(F)(F)F)cc1)C1CCN(C(=O)OC(C)(C)C)CC1 (stereo not shown) [Example 43, 4-(1-{3-[3-(4-Trifluoromethoxy-benzyl)-3H-imidazo[4,5-b]pyridin-2-yl]-propionylamino}-ethyl)-piperidine-1-carboxylic acid tert-butyl ester]
0.012 µM	C[C@H](NC(=O)CCc1nc2cccnc2n1Cc1cccs1)c1ccc(Cl)cc1 [Example 44, N-[(S)-1-(4-Chloro-phenyl)-ethyl]-3-(3-thiophen-2-ylmethyl-3H-imidazo[4,5-b]pyridin-2-yl)-propionamide]
0.017 µM	C[C@H](NC(=O)CCc1nc2cccnc2n1Cc1ccc(F)c(F)c1)c1ccc(N2CCOCC2)cc1 [Example 45, 3-[3-(3,4-Difluoro-benzyl)-3H-imidazo[4,5-b]pyridin-2-yl]-N-[(S)-1-(4-morpholin-4-yl-phenyl)-ethyl]-propionamide]
0.018 µM	O=C(CCc1nc2cccnc2n1Cc1ccc(F)c(F)c1)N[C@@H]1c2ccccc2C[C@@H]1O [Example 46, 3-[3-(3,4-Difluoro-benzyl)-3H-imidazo[4,5-b]pyridin-2-yl]-N-((1R,2S)-2-hydroxy-indan-1-yl)-propionamide]
0.019 µM	O=C(CCc1nc2cccnc2n1Cc1ccc(F)cc1)NC(CO)c1ccc(F)cc1 (stereo not shown) [Example 47, 3-[3-(4-Fluoro-benzyl)-3H-imidazo[4,5-b]pyridin-2-yl]-N-[1-(4-fluoro-phenyl)-2-hydroxy-ethyl]-propionamide]
0.019 µM	O=C(CCc1nc2cccnc2n1Cc1ccc(F)c(F)c1)NC(CCO)c1ccc(F)cc1 (stereo not shown) [Example 48, 3-[3-(3,4-Difluoro-benzyl)-3H-imidazo[4,5-b]pyridin-2-yl]-N-[1-(4-fluoro-phenyl)-3-hydroxy-propyl]-propionamide]
